Publication PMC11817372, “The Silkworm (Bombyx mori) Neuropeptide Orcokinin’s Efficiency in Whitening and Skincare” (International Journal of Molecular Sciences, 2025)
Where two headings read alike, the source gives them in different places.

Experiments:
[1] = tested on: UV-irradiated guinea pig skin; assay type: in vivo, guinea pig (Cavia porcellus); settings: peptide solution 5 mmol/L painted on UV-irradiated back skin, sections after 24 h; for pathological tissue findings (Masson staining and HE staining): versus deionized water side
Description: Model preparation: Six adult healthy guinea pigs with normal development were selected. The fur on both sides of the back was shaved to expose a circular area with a diameter of 4 cm. Ultraviolet (UV) irradiation was performed at 10 cm from the skin in the exposed area, once daily with a dose of 700 mJ/cm^2, and continued for 7 consecutive days, with a cumulative dose of […]. A metal halide lamp was used as the light source with a power of 1000 W and a peak spectrum of 360 nm, including 70% long-wave ultraviolet (UVA) and 4% medium-wave ultraviolet (UVB). After UV-irradiation treatment, the peptide solution (5 mmol/L) was painted to the right, and an equal amount of deionized water was applied to the left. Tissue sections and staining observations were performed after 24 h.
Sectioning: Approximately 0.4 cm^3 of subcutaneous tissue from the drug administration area was excised, cleaned with physiological saline, and fixed. After dehydration (DIAPATH, Donatello, Milan, Italy) and hardening treatment, it was subsequently made transparent and subjected to a wax immersion treatment. After paraffin embedding (Wuhan Junjie Electronics Co., Ltd., JB-P5, Wuhan, China), the tissue was sectioned using a microtome (Shanghai Leica Instrument Co., Ltd., RM2016, Shanghai, China). The arranged sections were organized (Zhejiang Jinhua Kedi Instrument Equipment Co., Ltd., KD-P, Jinhua, China) for HE staining and Masson staining.
HE staining: The paraffin sections were placed in xylene I for 20 min, xylene II for 20 min, anhydrous ethanol I for 5 min, anhydrous ethanol II for 5 min, and 75% alcohol for 5 min for dewaxing treatment; after washing with water, they were placed into hematoxylin staining solution for 3–5 min, differentiated with differentiation solution after washing, and returned to blue with bluing solution after washing; after rinsing with running water, they were dehydrated with 85% and 95% alcohol solutions for 5 min each successively; after immersed into eosin staining solution for 5 min, they were placed in anhydrous ethanol I for 5 min, anhydrous ethanol II for 5 min, anhydrous ethanol III for 5 min, xylene I for 5 min, and xylene II for 5 min for transparency treatment. After, they were sealed with neutral gum, they were examined (Nikon Eclipse E100, Tokyo, Japan) and imaged (Nikon DS-U3, Tokyo, Japan) using a microscope.
Masson staining: The paraffin sections were placed in xylene I for 20 min, xylene II for 20 min, anhydrous ethanol I for 5 min, anhydrous ethanol II for 5 min, and 75% alcohol for 5 min for dewaxing treatment; after washing with water, they were immersed into Masson A solution overnight, washed with water, then immersed into a mixture of Masson B and Masson C for 1 min, washed with water, then differentiated using an alcohol solution containing 1% hydrochloric acid. Then, they were washed with water, then immersed into Masson D solution for 6 min, washed with water, then immersed into Masson E solution for 1 min, drained, and directly immersed into Masson F solution for 30 s. Subsequently, the sections were rinsed with 1% glacial acetic acid for differentiation, dehydrated with anhydrous ethanol three times for 5 min each, treated with xylene for transparency for 5 min, and then sealed with neutral gum. The sections were examined (Nikon Eclipse E100, Japan) and imaged (Nikon DS-U3, Japan) using a microscope.

Tyrosinase [2] = settings: for effect on tyrosinase reaction course (in words): absorbance time course 10-180 s compared with negative control completed at 60 s; for Inhibitory rate on tyrosinase, Average: average over 5, 0.1, 0.05 and 0.025 mmol/L; for highest inhibition rate on tyrosinase: highest rate among the tested concentrations
Description: The peptide solution (5 mmol/L) was then diluted 50-fold (0.1 mmol/L), 100-fold (0.05 mmol/L), and 200-fold (0.025 mmol/L), respectively, and then the inhibitory rate was calculated after a 5 min reaction.

Tyrosinase [3] = tested on: Tyrosinase; set-up: method as in PMID 23134995; settings: cited from earlier work
Description: Neuropeptides with biological functions were called neuropeptides if they were secreted by neural tissues and involved in nervous system functions, which were characterized by low content, high activity, and extensive and complex functions (including food intake regulation, improved metabolism, neural regulation and reproduction, etc.). However, there have been few reports on the pigmentation regulation of neuropeptide. One important function of BommoOK, as a multifunctional neuropeptide, was pigmentation regulation. In silkworm q-l (quail like) mutants, BommoOK was a losing function, a ...

B. mori = settings: CRISPR/cas9 tool and mature peptide subcutaneous injection; cited from earlier work
[4] = 0.025 mmol/L, after 5 min reaction
[5] = 0.05 mmol/L, after 5 min reaction
[6] = 0.1 mmol/L, after 5 min reaction

Molecule	melanin inhibition (melanocytes, melanin granules) ([1]; Masson and HE staining)	pathological tissue findings (Masson staining and HE staining) [1]	Inhibitory rate on tyrosinase (Tyrosinase [2]; [4])	Inhibitory rate on tyrosinase (Tyrosinase [2]; [5]) [%]	Inhibitory rate on tyrosinase (Tyrosinase [2]; [6]) [%]	Inhibitory rate on tyrosinase (Tyrosinase [2]; 5 mmol/L, after 5 min reaction) [%]	effect on tyrosinase reaction course (in words) (Tyrosinase [2])	Inhibitory rate on tyrosinase, Average (Tyrosinase [2]; after 5 min reaction) [%]	highest inhibition rate on tyrosinase (Tyrosinase [2])	inhibition rate on tyrosinase, all concentrations (Tyrosinase [2]; all concentrations (5, 0.1, 0.05, 0.025 mmol/L), after 5 min reaction)	duration of whitening effect (Tyrosinase [3])	whitening effect relative to β-arbutin (Tyrosinase [3])	pigmentation inhibition in B. mori (B. mori)
NFDEIDRSSLNTFV [BommoOKA_type1]	many stretched melanin granules emerged	loosely arranged tissues	5.16±0.14%	6.88±0.19	2.87±0.02	4.02±0.07	seemed to tend to accelerate tyrosinase	4.73±1.48					
YDYISPYG [BommoOKA_type5]		inflammatory factors were reduced, and epidermal hyperplasia improved	-2.68±1.07%	3.25±1.57	-0.19±1.08	5.93±0.94		1.58±3.28					
NLDSLGGANF [BommoOKB_type1]		significant epidermal hyperplasia	greater than 10%		8.6±1.39	-4.02±0.82	a certain inhibitory effect on tyrosinase	9.32±8.66	19.69%				
FYHLYGQNFLDIDSPVSSFD [BommoOKA_type3]			5.54±0.2%		6.50±0.17	9.37±0.34	a certain inhibitory effect on tyrosinase	8.27±2.42					
EARHSGYLPYQMF [BommoOKA_type4]		inflammatory factors were reduced, and epidermal hyperplasia improved	13.96±0.21%	17.02±0.11		11.28±0.22	a certain inhibitory effect on tyrosinase	15.49±3.17	19.69%	greater than 10%			
OC[C@H]1O[C@@H](Oc2ccc(O)cc2)[C@H](O)[C@@H](O)[C@@H]1O [β-Arbutin, reference compound]			32.70±0.33%	53.61±1.27	74.31±1.81	72.50±0.12		58.28±16.85	more than 70%		more than 8 weeks		
Oc1ccc(OC2CCCCO2)cc1 (stereo not drawn) [deoxyarbutin]												more than 350 times	
NFDEIDRSSMPFPYAI [BommoOKA_type2, mature peptide of silkworm neuropeptide Orcokinin, […]]		Many inflammatory cells	6.69±0.15%	6.12±0.09	5.16±0.09			7.02±1.88					key for pigmentation inhibition
